Laboratory results: patent EP2111858A1, “Novel treatment for alzheimer's disease” (EPFL Ecole Polytechnique Fédérale de Lausanne, priority 2008, dated 2009)

System: α- and β-secretase cleavage of APP
Assay: Western blot of intracellular APP-C99 and APP-C83 in rat primary neurons exposed to NMDAR modulators
Assay type: cell-based
Details: 15 DIV, compared to the untreated control, NMDA, D-serine 30µM for 3 minutes, memantine 30µM for 16 hours, DAPT 1 µM for 16 hours
Method: Neuronal cultures and treatments. Cortical and hippocampal neurons were cultured as described^27 from postnatal day 0 rats or mice and all treatments described bellow carried out at 15 days in vitro (DIV). Stimulations with 30µM N-methyl-D-aspartate (NMDA, Tocris), 30µM D-serine (the D isoform of the amino acid serine, Sigma), or a combination of NMDA + D-serine (30µM each) were carried out for 3 minutes and neurons transferred into trophically enriched medium and further incubated for 16 hours. Treatments with 30µM 1-amino-3,5-dimethyladamantane (memantine, Lucerna-Chem), 1 µM N-[N-(3,5-difluorophenacetyl)-L-alanyl]-S-phenylgly cine t-butyl ester (DAPT, ), and 1 µM phorbol 12-myristate 13-acetate (PMA, Sigma) were carried out for 16 hours. Pre-treatments with 1 µM TAPI-1 (Calbiochem), 1 µM GL189 (Calbiochem), 1,2-bis(o-aminophenoxy)ethane-N,N,N',N'-tetraacetic acid (BAPTA, Sigma), H-89, chelerythrine, or KN-62 (Biaffin GmbH & Co KG) were carried out for 1 hour. Next, neurons were treated (or not) with NMDA or NMDA + D-serine as described above, and cells transferred into trophically enriched medium and incubated for additional 15 hours. Whole cell lysates were prepared for Western blot analysis as described below.
Western blotting and antibodies. Cells were washed with cold phosphate-bufferd saline containing 2 mM EDTA and homogenized in 50 mM Tris-HCL pH 7.4, 350 mM NaCl, 100 mM DTT, 0.1% SDS, 0.5% NP-40 and a cocktail of protease inhibitors (Roche Diagnostics). Protein whole cell extracts were separated on 4-12% Bis-tris gels (Invitrogen) and transferred onto nitrocellulose membranes to detect APP-FL, APP-C99, APP-C83 and AICD (CT15, Sigma), sAPPα (6E10, Signet), Notch-FL and NICD (Sigma), ADAM10 (Calbiochem), ADAM17 (Calbiochem), BACE1 (EE17, Sigma), NCT (NCT164, BD Bioscience), PS1-FL and PS1-NTF (MAB1536, Chemicon International), Pen-2 (UD-1, 1:500, a gift of Helena Karlström), and β-Action (Sigma).

Compound | intracellular accumulation of APP-C99 and APP-C83
N[C@H](CO)C(=O)O [D-serine] | did not affect the production of APP-C99/APP-C83
C[C@H](NC(=O)Cc1cc(F)cc(F)c1)C(=O)N[C@H](C(=O)OC(C)(C)C)c1ccccc1 [DAPT, N-[N-(3,5-difluorophenacetyl)-L-alanyl]-S-phenylglycine t-butyl ester] | increased levels of both APP-C83 and APP-C99
CC12CC3CC(C)(C1)CC(N)(C3)C2 [memantine, 1-amino-3,5-dimethyladamantane] | triggered the accumulation of APP-C83
